# US4771041A, “Method for combating virus infection” (priority 1976, dated 1988)
# Columns and labels:
# visna virus = assay: Visna virus growth in sheep choroid plexus (SCP) cells: virus titre and morphological changes; assay type: cell-based; conditions: for Morphological changes Day 3 / Morphological changes Day 5 / Morphological changes Day 7: Visna virus infected cells
# Protocol: Visna virus is a retrovirus that can multiply in sheep choroid (SCP) cells. The infection can be followed by titrating medium from infected cells to determine the formation of virus particles and by observing morphological changes as syncytial formation and cell degeneration.
# Plates (5 cm) with primary SCP cells in medium 199 with 10% sheep serum were grown to confluence and then infected with 1×10^6 TCID50 (tissue culture infectious doses) of visna virus. One set of plates were left untreated, one set received different concentrations of phosphonoformic acid (PFA) at pH 7.2. Another set received phosphonoacetic acid (PAA) at pH 7.2. Uninfected plates were used as controls with and without PFA and PAA. The virus titre was determined 5 days after infection by the end-point titration method. The plates were checked daily in a light microscope to observe morphological changes.
# [1] = target: T1, reverse transcriptase from SSV (Woolly monkey sarcoma virus, UniProt P03359); assay: Cell-free reverse transcriptase inhibition, SSV; assay type: biochemical, simian sarcoma virus; conditions: template/primer (rA)n.(dT)10, read-out: Percent inhibition
# T1 construct: Reverse transcriptase from various retroviruses have been tested in cell-free assays
# Protocol: Reverse transcriptase from various retroviruses have been tested in cell-free assays for inhibition by phosphonoformic acid and phosphonoacetic acid. The assay conditions have been described by Collaborative Research, Inc, 1365 Main Street, Waltham, Mass., USA "Assay kit for mammalian viral reverse transcriptase". BLV and VV were prepared in this laboratory and all other viruses and viral enzyme were obtained from Dr. K Nilsson, Department of Pathology, University of Uppsala and from Boehringer Mannheim, Germany. Phosphonoformic acid (PFA) and phosphonoacetic acid (PAA) were added at pH 7.2 to the reaction mixtures at the start of the reaction.
# Rauscher murine leukemia virus; RMuLV, visna virus; VV, avian myeloblastosis virus; AMV, bovine leukemia virus; BLV, baboon endogenous virus; BaEV, simian sarcoma virus; SSV.
# T1 sequence (P03359 642-1310): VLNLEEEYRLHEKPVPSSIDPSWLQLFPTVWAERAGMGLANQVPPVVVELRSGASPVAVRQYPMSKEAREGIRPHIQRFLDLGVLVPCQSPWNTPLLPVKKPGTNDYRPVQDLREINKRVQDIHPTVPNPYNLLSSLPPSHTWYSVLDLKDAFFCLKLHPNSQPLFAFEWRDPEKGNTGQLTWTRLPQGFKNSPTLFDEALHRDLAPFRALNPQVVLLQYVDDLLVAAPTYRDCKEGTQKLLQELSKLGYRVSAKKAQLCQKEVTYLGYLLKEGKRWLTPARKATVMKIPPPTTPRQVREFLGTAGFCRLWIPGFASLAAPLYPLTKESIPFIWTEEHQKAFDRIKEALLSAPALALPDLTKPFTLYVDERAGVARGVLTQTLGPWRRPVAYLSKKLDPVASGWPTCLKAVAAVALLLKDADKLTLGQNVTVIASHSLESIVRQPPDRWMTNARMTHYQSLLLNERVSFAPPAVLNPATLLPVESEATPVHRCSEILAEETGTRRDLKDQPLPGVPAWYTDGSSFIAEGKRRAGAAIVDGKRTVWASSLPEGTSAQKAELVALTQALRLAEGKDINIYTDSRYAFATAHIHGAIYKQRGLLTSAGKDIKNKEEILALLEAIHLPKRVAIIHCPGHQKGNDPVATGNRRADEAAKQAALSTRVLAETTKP
smiles,measurement,setting,value
O=C(O)P(=O)(O)O [phosphonoformic acid],Morphological changes Day 3,visna virus; 100 μM,-
same,Morphological changes Day 5,visna virus; 100 μM,+ (10% cell degeneration)
same,Morphological changes Day 7,visna virus; 100 μM,++ (25% cell degeneration)
same,Morphological changes Day 3,visna virus; 500 μM,-
same,Morphological changes Day 5,visna virus; 500 μM,-
same,Morphological changes Day 7,visna virus; 500 μM,+ (10% cell degeneration)
same,IC50,"visna virus; Visna-maedi virus, 120 h, SCP cells, virus titre 5 days after infection, read-out: concentration giving 50 percent reduction of virus multiplication",20 µM
same,inhibition at 10 µM,[1]; 10 μM,92%
same,inhibition at 100 µM,[1]; 100 μM,> 99%
same,inhibition at 500 µM,[1]; 500 μM,> 99%
